Assay results published in paper PMC6010099, “Synthesis and antitumor activity of novel 2, 3-didithiocarbamate substituted naphthoquinones as inhibitors of pyruvate kinase M2 isoform” (Journal of Enzyme Inhibition and Medicinal Chemistry, 2017).
Read-outs that look alike come from different tables or passages of the source.

Legend:
B16 = assay: MTS cell proliferation assay, B16; format: cell-based; conditions: B16 mouse melanoma, 48 h, read-out: IC50 ± SD, in vitro cytotoxicity B16
Protocol: (§1) Cell lines were grown with routine culture techniques in RPMI 1640 supplemented with 9% foetal bovine serum at 37 °C in 5% CO2.
(§2) Cells were plated in 96-well plates at a density of 5000 cells per well. Twelve hours after seeding, cells were treated with various concentrations of test compounds for 48 h. Cell viability was assessed with the MTS assay (Promega) according to the manufacturer's instruction.
(§3) To determine the efficiency of 3a-3h as antitumour agents, we assessed the in vitro cytotoxicity of 3a-3h using several different tumour cell lines derived from human colon cancer (HCT116), breast cancer (MCF7), cervical cancer (Hela) and lung cancer (H1299) and mouse melanoma (B16). […] This discrepancy may be due to the different properties of these compounds such as cell penetration that is important in the cellular assay.

HCT116 = assay: MTS cell proliferation assay, HCT116; format: cell-based, human; conditions: 48 h, read-out: IC50 ± SD, in vitro cytotoxicity HCT116
Protocol: as §1, §2, §3

Hela = assay: MTS cell proliferation assay, Hela; format: cell-based, human; conditions: Hela cervical cancer, 48 h, read-out: IC50 ± SD, in vitro cytotoxicity Hela
Protocol: as §1, §2, §3

MCF7 = assay: MTS cell proliferation assay, MCF7; format: cell-based, human; conditions: MCF7 breast cancer, 48 h, read-out: IC50 ± SD, in vitro cytotoxicity MCF7
Protocol: as §1, §2, §3

PKM2 = target: T1, PKM2 (Homo sapiens, UniProt P14618); assay: PKM2 activity assay (fluorescent pyruvate kinase-lactate dehydrogenase coupled assay); format: biochemical; conditions: recombinant human PKM2, fluorescent PK-LDH coupled assay; read-out: IC50 ± SD, PKM2 inhibitory activity
T1 construct: His tag (N); made in house; host or cells: Escherichia coli BL21
Protocol: Human cDNA for PKM2 was cloned into pET28a^+ with a N-terminal His tag and purified from Escherichia coli strain BL21 (Invitrogen) using Ni-Agarose beads (Qiagen) as described previously.
Pyruvate kinase activity was measured with a fluorescent pyruvate kinase-lactate dehydrogenase coupled assay as previously described.
We first tested the effect of compound 3a-3h on PKM2 activity using a fluorescent PK-LDH coupled assay according to a previously reported method. Shikonin, which is a known inhibitor of PKM2, was used as the positive control. […] The preliminary SAR can be summarised as follows. The amine moiety of target compounds greatly influenced PKM2 inhibitory activity. Introduction of a short chain N, N-dimethylamine reduced the inhibitory activity (3b vs. 3c and 3d). When the n-propyl amine in 3d was replaced by allyl amine (3e), the inhibitory activity was lowered. […] Introduction of a sulphur atom therefore contributed to improvement of PKM2 inhibitory activity.

H1299 = assay: MTS cell proliferation assay, H1299; format: cell-based, human; conditions: 48 h, read-out: IC50 ± SD, in vitro cytotoxicity H1299
Protocol: as §1, §2, §3

[1] = tested on: HCT116, MCF7, Hela, H1299 and B16 cells; assay: MTS cell proliferation assay, range over the tumour cell panel; format: cell-based; conditions: range over the five cell lines, read-out: IC50 values against HCT116, MCF7, Hela, H1299 and B16 cells (range over cell lines)
Protocol: as §1, §2, §3

BEAS-2B cells = assay: Cytotoxicity in normal BEAS-2B cells; format: cell-based; conditions: normal human bronchial epithelial cells
Protocol: as §1, §2
To further explore the selectivity of target compounds against cancer cells, we tested the cytotoxicity of representative compound 3f in BEAS-2B cells derived from normal human bronchial epithelial cells.

[2] = Homo sapiens, HCT-116, HCT116 colon cancer
[3] = Homo sapiens, NCI-H1299, H1299 lung cancer

T1 sequence (P14618 whole entry): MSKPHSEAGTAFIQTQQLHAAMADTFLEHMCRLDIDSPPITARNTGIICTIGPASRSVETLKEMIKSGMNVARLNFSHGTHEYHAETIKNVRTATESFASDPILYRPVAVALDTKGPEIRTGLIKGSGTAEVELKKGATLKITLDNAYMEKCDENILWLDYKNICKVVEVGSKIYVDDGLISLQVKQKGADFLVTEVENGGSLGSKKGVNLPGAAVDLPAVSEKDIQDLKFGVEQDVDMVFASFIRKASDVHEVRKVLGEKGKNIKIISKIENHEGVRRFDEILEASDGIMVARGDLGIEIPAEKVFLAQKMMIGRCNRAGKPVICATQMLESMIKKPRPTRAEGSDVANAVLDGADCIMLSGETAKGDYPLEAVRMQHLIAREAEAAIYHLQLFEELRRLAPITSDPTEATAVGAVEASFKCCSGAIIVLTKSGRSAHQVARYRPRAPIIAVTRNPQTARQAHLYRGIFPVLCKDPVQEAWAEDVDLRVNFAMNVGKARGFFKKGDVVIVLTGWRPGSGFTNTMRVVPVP

| Compound | IC50 (B16) | IC50 (HCT116; HCT116 colon cancer) | IC50 (Hela) | IC50 (MCF7) | IC50 (PKM2) | IC50 (H1299; H1299 lung cancer) | IC50 (HCT116; [2]) | IC50 (Hela; Homo sapiens) | IC50 (MCF7; Homo sapiens) | IC50 [1] | IC50 (H1299; [3]) | melting point | IC50 (BEAS-2B cells) |
| --- | --- | --- | --- | --- | --- | --- | --- | --- | --- | --- | --- | --- | --- |
| O=C1C(CSC(=S)N2CCOCC2)=C(CSC(=S)N2CCOCC2)C(=O)c2ccccc21 [3a, dimorpholine-dithiocarbamic acid 3-dimorpholinethiocarbamoylsulphanylmethyl-1,4-dioxo-1,4-dihydro-naphthalen-2-ylmethyl ester] | 272 ± 10 nM | 214 ± 3 nM | 337 ± 54 nM | 340 ± 3 nM | 2640 ± 980 nM | 331 ± 91 nM | – | – | – | – | – | – | – |
| CN(C)C(=S)SCC1=C(CSC(=S)N(C)C)C(=O)c2ccccc2C1=O [3b, dimethyl-dithiocarbamic acid 3-dimethylthiocarbamoylsulphanylmethyl-1,4-dioxo-1,4-dihydro-naphthalen-2-ylmethyl ester] | 104 ± 11 nM | – | – | – | > 10000 nM | – | 88 ± 4 nM | 122 ± 17 nM | 69 ± 9 nM | 69 to 122 nM | 109 ± 2 nM | – | – |
| CCN(CC)C(=S)SCC1=C(CSC(=S)N(CC)CC)C(=O)c2ccccc2C1=O [3c, diethyl-dithiocarbamic acid 3-diethylthiocarbamoylsulphanylmethyl-1,4-dioxo-1,4-dihydro-naphthalen-2-ylmethyl ester] | 108 ± 10 nM | – | – | – | 2780 ± 970 nM | – | 93 ± 2 nM | 251 ± 59 nM | 84 ± 3 nM | 84 to 251 nM | 144 ± 13 nM | 130 to 131 °C | – |
| CCCN(CCC)C(=S)SCC1=C(CSC(=S)N(CCC)CCC)C(=O)c2ccccc2C1=O [3d, dipropyl-dithiocarbamic acid 3-dipropylthiocarbamoylsulphanylmethyl-1,4-dioxo-1,4-dihydro-naphthalen-2-ylmethyl ester] | 787 ± 203 nM | – | – | – | 3080 ± 1230 nM | – | 597 ± 14 nM | > 10000 nM | > 10000 nM | – | 830 ± 162 nM | 111 to 112 °C | – |
| C=CCN(CC=C)C(=S)SCC1=C(CSC(=S)N(CC=C)CC=C)C(=O)c2ccccc2C1=O [3e, diallyl-dithiocarbamic acid 3-diallylthiocarbamoylsulphanylmethyl-1,4-dioxo-1,4-dihydro-naphthalen-2-ylmethyl ester] | 709 ± 27 nM | – | – | – | > 10000 nM | – | 742 ± 45 nM | 3460 ± 3190 nM | 1090 ± 421 nM | – | 1020 ± 111 nM | – | – |
| O=C1C(CSC(=S)N2CCSCC2)=C(CSC(=S)N2CCSCC2)C(=O)c2ccccc21 [3f, dithiamorpholine-dithiocarbamic acid 3-dithiamorpholinethiocarbamoylsulphanylmethyl-1,4-dioxo-1,4-dihydro-naphthalen-2-ylmethyl ester] | 189 ± 6 nM | 189 ± 35 nM | 412 ± 18 nM | 194 ± 55 nM | 1050 ± 170 nM | 206 ± 18 nM | – | – | – | – | – | – | 11500 ± 620 nM |
| O=C1C(CSC(=S)N2CCCC2)=C(CSC(=S)N2CCCC2)C(=O)c2ccccc21 [3g, dipyrrolidine-dithiocarbamic acid 3-dipyrrolidinethiocarbamoylsulphanylmethyl-1,4-dioxo-1,4-dihydro-naphthalen-2-ylmethyl ester] | 159 ± 2 nM | 164 ± 3 nM | 298 ± 53 nM | 638 ± 20 nM | 2330 ± 520 nM | 247 ± 15 nM | – | – | – | – | – | – | – |
| O=C1C(CSC(=S)N2CCSC2)=C(CSC(=S)N2CCSC2)C(=O)c2ccccc21 [3h, dithiazolidine-dithiocarbamic acid 3-dithiazolidinethiocarbamoylsulphanylmethyl-1,4-dioxo-1,4-dihydro-naphthalen-2-ylme-thyl ester] | 317 ± 22 nM | 374 ± 15 nM | 1130 ± 80 nM | 234 ± 45 nM | 960 ± 180 nM | 306 ± 8 nM | – | – | – | – | – | – | – |
| CC1=C(CSC(=S)N2CCCCC2)C(=O)c2ccccc2C1=O [3k, reference compound] | – | – | – | – | 2950 ± 530 nM | – | – | – | – | – | – | – | – |
| CC(C)=CC[C@@H](O)C1=CC(=O)c2c(O)ccc(O)c2C1=O [Shikonin, reference compound] | 1220 ± 155 nM | – | – | – | 8820 ± 2620 nM | – | 1060 ± 182 nM | 813 ± 81 nM | 2400 ± 346 nM | – | 954 ± 186 nM | – | – |
